Read-outs that look alike come from different tables or passages of the source.
System: COVID-19
Details: for Cough complaint scale, mean / Cough complaint scale, median / Change in cough complaint scale, mean / Change in cough complaint scale, median: n = 36; for Ability to perform normal activities, complaint scale 0-6, mean change / Ability to perform normal activities, complaint scale 0-6, median change: week 4 - baseline
[1] = baseline, BMI ≥30.0 or type 2 diabetes, n = 27
[2] = baseline, current or former smokers, n = 75
[3] = baseline, patients with cough and fever, n = 15
[4] = baseline, patients with cough, n = 106
[5] = baseline, patients with fever, n = 21
[6] = baseline, ≥1 risk factor for severe COVID-19, n = 117
[7] = patients with cough and taste loss, baseline
[8] = patients with cough and taste loss, week 2
[9] = patients with cough and taste loss, week 2 - baseline
[10] = patients with cough and taste loss, week 4
[11] = patients with cough and taste loss, week 6
[12] = patients with cough and taste loss, week 6 - baseline
[13] = patients with cough, fever and taste loss, n = 6, week 4 compared to baseline
[14] = patients with cough, fever and taste loss, n = 6, week 6 compared to baseline
[15] = patients with fever and taste loss, n = 8, week 4 compared to baseline
[16] = patients with fever and taste loss, n = 8, week 6 compared to baseline
[17] = week 2 - baseline, BMI ≥30.0 or type 2 diabetes, n = 27, 500 mg IR + 500 mg CICR-NAM daily
[18] = week 2, BMI ≥30.0 or type 2 diabetes, n = 27, 500 mg IR + 500 mg CICR-NAM daily
[19] = week 2, current or former smokers, n = 75, 500 mg IR + 500 mg CICR-NAM daily
[20] = week 2, patients with cough and fever, n = 15, 500 mg IR + 500 mg CICR-NAM daily
[21] = week 2, patients with cough, n = 106, 500 mg IR + 500 mg CICR-NAM daily
[22] = week 2, patients with fever, n = 21, 500 mg IR + 500 mg CICR-NAM daily
[23] = week 2, ≥1 risk factor for severe COVID-19, n = 117, 500 mg IR + 500 mg CICR-NAM daily
[24] = BMI ≥30.0 or type 2 diabetes, n = 27, 500 mg IR + 500 mg CICR-NAM daily
[25] = patients with cough and fever, n = 15, 500 mg IR + 500 mg CICR-NAM daily
[26] = patients with cough, n = 106, 500 mg IR + 500 mg CICR-NAM daily
[27] = patients with fever, n = 21, 500 mg IR + 500 mg CICR-NAM daily
[28] = week 4, BMI ≥30.0 or type 2 diabetes, n = 27, 500 mg IR + 500 mg CICR-NAM daily
[29] = week 4, current or former smokers, n = 75, 500 mg IR + 500 mg CICR-NAM daily

NC(=O)c1cccnc1 [Nicotinamide, nicotinamide]
Ability to perform normal activities, complaint scale 0-6, mean [1]: 3.037 | Ability to perform normal activities, complaint scale 0-6, median [1]: 3.000 | Cough complaint scale 0-6, mean [1]: 3.000 | Cough complaint scale 0-6, median [1]: 3.000 | Ability to perform normal activities, complaint scale 0-6, mean [2]: 3.373 | Ability to perform normal activities, complaint scale 0-6, median [2]: 4.000 | Ability to perform normal activities, complaint scale 0-6, mean [3]: 4.000 | Ability to perform normal activities, complaint scale 0-6, median [3]: 4.0 | Ability to perform normal activities, complaint scale 0-6, mean [4]: 2.915 | Ability to perform normal activities, complaint scale 0-6, median [4]: 3.0 | Ability to perform normal activities, complaint scale 0-6, mean [5]: 4.000 | Ability to perform normal activities, complaint scale 0-6, median [5]: 4.0 | Ability to perform normal activities, complaint scale 0-6, mean [6]: 3.188 | Ability to perform normal activities, complaint scale 0-6, median [6]: 3.0 | Cough complaint scale vs placebo (Table 7.1) (patients with cough and taste loss): significant difference found in favour of placebo | Cough complaint scale, mean [7]: 2.194 | Cough complaint scale, median [7]: 2.0 | Cough complaint scale, mean [8]: 0.917 | Cough complaint scale, median [8]: 0.0 | Change in cough complaint scale, mean [9]: −1.287 | Change in cough complaint scale, median [9]: −1.0 | Cough complaint scale, mean [10]: 0.639 | Cough complaint scale, median [10]: 0.0 | Cough complaint scale, mean [11]: 0.417 | Cough complaint scale, median [11]: 0.0 | Change in cough complaint scale, mean [12]: −1.778 | Change in cough complaint scale, median [12]: −2.0 | Change in fatigue: constant, number of patients [13]: 1 | Change in fatigue: improved, % [13]: 83.33% | Change in fatigue: improved, number of patients [13]: 5 | Change in fatigue: worse, % [13]: 0.00% | Change in fatigue: worse, number of patients [13]: 0 | Change in fatigue: constant, number of patients [14]: 2 | Change in fatigue: improved, % [14]: 66.67% | Change in fatigue: improved, number of patients [14]: 4 | Change in fatigue: worse, % [14]: 0.00% | Change in fatigue: worse, number of patients [14]: 0 | Change in fatigue: constant, number of patients [15]: 1 | Change in fatigue: improved, % [15]: 87.50% | Change in fatigue: improved, number of patients [15]: 7 | Change in fatigue: worse, % [15]: 0.00% | Change in fatigue: worse, number of patients [15]: 0 | Change in fatigue: constant, number of patients [16]: 2 | Change in fatigue: improved, % [16]: 75.00% | Change in fatigue: improved, number of patients [16]: 6 | Change in fatigue: worse, % [16]: 0.00% | Change in fatigue: worse, number of patients [16]: 0 | Effect on the ability to perform normal activities, fatigue and reduced physical performance (patients with ≥1 risk factor for severe COVID-19, futility analysis): biologically and statistically significant positive effect | Cough complaint scale 0-6, mean change [17]: −1.815 | Cough complaint scale 0-6, median change [17]: −2.000 | Ability to perform normal activities, complaint scale 0-6, mean [18]: 1.556 | Ability to perform normal activities, complaint scale 0-6, median [18]: 1.000 | Cough complaint scale 0-6, mean [18]: 1.185 | Cough complaint scale 0-6, median [18]: 1.000 | Ability to perform normal activities, complaint scale 0-6, mean [19]: 1.093 | Ability to perform normal activities, complaint scale 0-6, median [19]: 0.000 | Presence of cough constant vs baseline, % of patients [19]: 60.00% | Presence of cough constant vs baseline, patients [19]: 45 | Presence of cough improved vs baseline, % of patients [19]: 36.00% | Presence of cough improved vs baseline, patients [19]: 27 | Presence of cough worse vs baseline, % of patients [19]: 4.00% | Presence of cough worse vs baseline, patients [19]: 3 | Ability to perform normal activities, complaint scale 0-6, mean [20]: 1.733 | Ability to perform normal activities, complaint scale 0-6, median [20]: 2.0 | Ability to perform normal activities, complaint scale 0-6, mean [21]: 1.226 | Ability to perform normal activities, complaint scale 0-6, median [21]: 1.0 | Ability to perform normal activities, complaint scale 0-6, mean [22]: 1.381 | Ability to perform normal activities, complaint scale 0-6, median [22]: 1.0 | Ability to perform normal activities, complaint scale 0-6, mean [23]: 1.299 | Ability to perform normal activities, complaint scale 0-6, median [23]: 1.0 | Fatigue constant vs baseline, % of patients [23]: 57.26% | Fatigue constant vs baseline, patients [23]: 67 | Fatigue improved vs baseline, % of patients [23]: 40.17% | Fatigue improved vs baseline, patients [23]: 47 | Fatigue worse vs baseline, % of patients [23]: 2.56% | Fatigue worse vs baseline, patients [23]: 3 | Ability to perform normal activities, complaint scale 0-6, mean change [24]: −1.667 | Ability to perform normal activities, complaint scale 0-6, median change [24]: −2.000 | Ability to perform normal activities, complaint scale 0-6, mean change [25]: −2.800 | Ability to perform normal activities, complaint scale 0-6, median change [25]: −3.0 | Ability to perform normal activities, complaint scale 0-6, mean change [26]: −2.179 | Ability to perform normal activities, complaint scale 0-6, median change [26]: −2.0 | Ability to perform normal activities, complaint scale 0-6, mean change [27]: −2.952 | Ability to perform normal activities, complaint scale 0-6, median change [27]: −3.0 | Ability to perform normal activities constant vs baseline, % of patients [28]: 14.81% | Ability to perform normal activities constant vs baseline, patients [28]: 4 | Ability to perform normal activities improved vs baseline, % of patients [28]: 74.07% | Ability to perform normal activities improved vs baseline, patients [28]: 20 | Ability to perform normal activities worse vs baseline, % of patients [28]: 11.11% | Ability to perform normal activities worse vs baseline, patients [28]: 3 | Ability to perform normal activities, complaint scale 0-6, mean [28]: 1.370 | Ability to perform normal activities, complaint scale 0-6, median [28]: 1.000 | Cough complaint scale 0-6, mean [28]: 0.815 | Cough complaint scale 0-6, median [28]: 0.000 | Ability to perform normal activities constant vs baseline, % of patients [29]: 9.33% | Ability to perform normal activities constant vs baseline, patients [29]: 7 | Ability to perform normal activities improved vs baseline, % of patients [29]: 84.00% | Ability to perform normal activities improved vs baseline, patients [29]: 63

From patent US20230414599A1, “NICOTINAMIDE, NICOTINAMIDE PRECURSORS AND NICOTINAMIDE METABOLITES AND COMPOSITIONS THEREOF FOR REDUCING THE TIME TO RESOLUTION OF SYMPTOMS IN PATIENTS WITH COVID-19 AND OTHER VIRAL INFECTIONS” (CONARIS RESEARCH INSTITUTE AG, priority 2020, published 2023)
